# Measurements: patent publication US9101628B2, “Methods and composition of treating a flaviviridae family viral infection” (The Board of Trustees of the Leland Stanford Junior …, priority 2007, dated 2015)
# “Also recorded” adds a separate entry of the source. Counter-ions that a name gives are not always drawn. Like-named read-outs stand apart in the source and are kept apart here.
# Legend:
# HuR = biological target: T1, HuR (Homo sapiens, UniProt Q15717); test: HuR RNA binding by microfluidics (specificity of hits); conditions: 0.1 mM
# T1 construct: The open reading frames (ORF) of HuR and HuD were obtained from the ORFeome library of cDNA clones (Open biosystems); V5-his (C); made in house; host or cells: cell-free expression on the microfluidic device, from pcDNA-Dest 40 carrying the ORFeome clone (Open Biosystems)
# Experimental: Specificity of hits identified in the small molecule screen: To determine the specificity of the hits identified in the small molecule screen, the HuR protein (one of the human RNA binding protein used to validate our RNA binding assay) was selected. […] Binding of HuR to the consensus 4A RNA sequence was tested in the presence of the inhibitory molecules shown to inhibit RNA binding by NS4B. […] Similarly, 0.1 mM of the identified compounds didn't have an inhibitory effect on binding of HuR to the 3′ terminus of the negative HCV RNA strand.
# Huh7.5 cells = test: Alamar Blue-based cell viability assay; set-up: species or system human
# Experimental: (§1) Total volume per well is 100 μl.
# (§2) (or until there is a color change).
# [1] = system: full-length J6/JFH (genotype 2a) HCV RNA genome; test: microbe, parasite or virus in culture; format: cell-based; conditions: for EC50: Hepatitis C virus, Huh7.5, 72 h, read-out: EC50 HCV replication, genotype 2a luciferase reporter, Huh7.5 cells, 72 hr
# Experimental: In such assays, luciferase activity is directly proportional to HCV RNA genome replication.
# The in vivo antiviral effect on HCV RNA replication of the inhibitory compounds identified in the above screen was measured. Following electroporation with a full-length HCV RNA genome harboring a luciferase reporter gene, Huh7.5 cells were grown in the presence of increasing concentrations of these compounds. Luciferase assays were performed at 72 hr. In parallel, the viability of cells in the presence of the compounds was assessed by an Alamar Blue-based assay.
# Huh-7.5 cells were maintained in Dulbecco's modified minimal essential medium (Gibco) supplemented with 1% L-glutamine (Gibco), 1% penicillin, 1% streptomycin (Gibco), 1× nonessential amino acids (Gibco) and 10% fetal bovine serum (Omega Scientific). Cell lines were passaged twice weekly after treatment with 0.05% trypsin-0.02% EDTA and seeding at a dilution of 1:5. Subconfluent Huh-7.5 cells were trypsinized and collected by centrifugation at 700 g for 5 min. The cells were then washed three times in ice-cold RNase-free PBS (BioWhittaker) and resuspended at 1.5*10^7 cells/ml in PBS. Wild type or mutant FL-J6/JFH-5′C19Rluc2AUbi RNA for electroporation was generated by in vitro transcription of XbaI-linearized DNA templates using the T7 MEGAscript kit (Ambion), followed by purification, essentially as described above (In vitro RNA transcription and fluorescent labeling). 5 μg of RNA was mixed with 400 μl of washed Huh-7.5 cells in a 2 mm-gap cuvette (BTX) and immediately pulsed (0.82 kV, five 99 μs pulses) with a BTX-830 electroporator. After a 10 min recovery at 25° C., pulsed cells were diluted into 10 ml of prewarmed growth medium. Cells from several electroporations were pooled to a common a stock and seeded in 6 well plates (5*10^5 cells per well). After 24 hr, medium was replaced and cells were grown in the presence of serial dilutions of the various inhibitory compounds (Sigma) identified in the screen. […] Untreated cells were used as a negative control for water soluble compounds. For compounds solubilized in DMSO, untreated cells were grown in the presence of corresponding concentrations of the solvent as a negative control. Medium was changed daily. After 72 hr of treatment, cells were subjected to an alamar blue based viability assay and luciferase assay.
# The experiment was repeated four times, each time with triplicates.
# Following electroporation with a full-length J6/JFH (genotype 2a) HCV RNA genome harboring a luciferase reporter gene, Huh7.5 cells were grown in the presence of various concentrations of the individual compounds and their combinations. Luciferase assays were performed at 72 hr.
# hERG channel [2] = biological target: T2, hERG channel (Homo sapiens, UniProt Q12809)
# hERG channel [3] = biological target: T2, hERG channel; test: HERG channel assay (whole cell recordings, CHO cell line expressing hERG)
# HCV = conditions: cited from earlier work
# [4] = system: subgenomic Bart 79I HCV RNA replicon (genotype 1b); test: microbe, parasite or virus in culture; format: cell-based; conditions: Hepatitis C virus; genotype 1b luciferase reporter, 72 hr; read-out: EC50 HCV replication
# [5] = Alamar Blue-based cell viability assay; set-up: species or system human; conditions: human
# Experimental: as §1, §2
# [6] = system: replicon harboring the W55R mutation; test: Whole cell RNA electroporation, clemizole resistant clone; format: cell-based, HCV; conditions: 10 μM clemizole; 2.5 μM SCH503034
# Experimental: Whole cell RNA was extracted from clemizole-resistant replicon clones and from untreated replicon cells using TRIzol reagent (Invitrogen). Equal amounts of whole cell RNA (50 μg) were electroporated into Huh7.5 cells as described above. Cells were grown under G418 selection in the presence or absence of clemizole for 3 weeks. The number of colonies was determined using Image J (NIH) following fixation and staining with Crystal violet.
# Cells transfected with whole cell RNA extracted from wild type replicon cells were sensitive to both drugs.
# [7] = system: replicon harboring the A156T mutation; test: Whole cell RNA electroporation, SCH503034 resistant clone; format: cell-based, HCV
# [8] = system: infectious HCV clone (J6/JFH); test: Real-time PCR assay of HCV replication in HCV-infected Huh7.5 cells; format: cell-based; conditions: real-time PCR (FIG. 8)
# Experimental: 5×10^4 Huh7.5 ells were infected with cell culture-grown HCV titered at 1.4×10^4 TCID50/ml, as described. 2 hours after infection, cells were washed three times in culture medium. Cells were then treated daily with various concentrations of clemizole. After 72 hours, samples were subjected to the viability assay described above, following which TRIzol Reagent (Invitrogen) was added and total cell RNA was extracted in triplicates according to the manufacturer's instructions. Reverse transcription was then performed using random hexamers and Superscript II reverse transcriptase (Invitrogen, Carlsbad, Calif.). Real-time PCR was performed on the resulting cDNA to quantify the amounts of HCV and actin RNA (in separate reactions) in each sample. Standards were made using an in vitro-transcribed HCV RNA and human actin standard (Applied Biosystems, Foster City, Calif.). HCV was quantified using primers […] (SEQ ID NO 8) and […] (SEQ ID NO 9) and probe 6-carboxyfluorescein-[…]-6 (SEQ ID NO 10) carboxytetramethylrhodamine. Actin was quantified using beta-actin control reagents (Applied Biosystems) according to the manufacturer's instructions. HCV RNA level was adjusted to actin level and normalized relative to untreated samples.
# HCV (genotype 4) = test: Treatment of patients chronically infected with HCV; format: in vivo, human; conditions: clemizole 100 milligrams p.o. BID alone, 4 weeks, 3 patients
# Experimental: After the first four weeks of clemizole monotherapy, pegylated interferon (180 micrograms Pegasus (Roche) s.q. per week) was added.
# W55R mutant J6/JFH RNA = test: Luciferase reporter-linked replication assay, W55R mutant; format: cell-based, HCV
# Excerpt: Two of the clemizole-resistant NS4B mutants were characterized in detail. The first, W55R is depicted in FIG. 6a. It involves the substitution of an arginine for the tryptophan at amino acid 55 within a predicted cytoplasmically-oriented segment of NS4B. This mutation is sufficient to confer a clemizole-resistant phenotype in cells: Huh7.5 cells transfected with either whole cell RNA extracted from the W55R mutant cells (FIG. 6b) or with in vitro-transcribed J6/JFH RNA encoding this point mutation and a linked luciferase reporter gene (FIG. 6c) were unaffected by 10 μM clemizole.
# The plasmid FL-J6/JFH-5′C19Rluc2AUbi that consists of the full-length HCV genome and expresses Renilla luciferase was a gift from Dr. Charles M. Rice. The W55R mutation was introduced into this plasmid by site-directed mutagenesis (using the QuikChange kit (Stratagene)).
# Medium was changed daily.
# W55R NS4B mutant = biological target: T3, W55R NS4B mutant (Hepatitis C virus genotype 1a, UniProt P27958, A1893V/D1840G/F1898S/L1839I/R1905H/S1900A/W1766R); test: In vitro microfluidic RNA binding assay, W55R NS4B mutant; set-up: species or system HCV; conditions: 10 nM clemizole
# T3 construct: made in house; host or cells: in vitro transcription/translation, inferred from the way wild-type NS4B-GFP was made; not repeated for the mutant
# [9] = system: genotype 1b subgenomic HCV replicon (Bart 79I); format: cell-based
# R214Q NS4B mutant HCV = test: Luciferase reporter linked replication assay, R214Q mutant; format: cell-based
# [10] = biological target: NS4B (binding to 3′ terminus negative strand HCV RNA) (Hepatitis C virus genotype 1a, UniProt P27958); test: In vitro microfluidic NS4B RNA binding assay; conditions: wild type NS4B, 10 nM clemizole
# [11] = genotype 1b experiments, Alamar Blue, 72 hr
compound,measurement,setting,value
O=C(O)C1=CC(=C(c2ccc(O)c(C(=O)O)c2)c2ccc(O)c(C(=O)O)c2)C=CC1=O [ATA],effect on binding of HuR to 4A RNA sequence,HuR,affected; also recorded: significantly inhibited
same,effect on binding of HuR to the 3′ terminus of the negative HCV RNA strand,HuR,significantly inhibited
"Clc1ccc(Cn2c(CN3CCCC3)nc3ccccc32)cc1 [Clemizole hydrochloride, clemizole hydrochloride]",cellular toxicity,"Huh7.5 cells; at antiviral concentrations, Alamar Blue, 72 hr, hydrochloride",no measurable cellular toxicity
same,cellular toxicity,"Huh7.5 cells; human, 72 h",little toxicity
same,decrease in viral replication,"[1]; 20 μM, 72 hr",tenfold
COc1ccc(Cn2cnc3c(NS(C)(=O)=O)c(C)c(C)cc32)cc1 [Compound 106],IC50,hERG channel [2],> 10 µM
O=c1ccc(-c2nc3cc(Cl)c(Cl)cc3n2Cc2ccc(Cl)c(Cl)c2)c[nH]1 [Compound 167],IC50,"hERG channel [3]; read-out: HERG IC50, CHO cell line stably expressing hERG",> 1 µM
Cc1ccc2c(c1)nc(CN1CCCCC1)n2Cc1ccc(Cl)cc1 [Compound 184],IC50,"hERG channel [3]; human, CHO cells stably expressing hERG",> 1 µM
"CNC(=O)c1c(-c2ccc(F)cc2)oc2cc(N(CCO)S(C)(=O)=O)c(C3CC3)cc12 [HCV 796, HCV-796]",EC50,[1],0.068 ± 0.008 µM
same,EC50,HCV; read-out: EC50 reported value,0.017 µM
"CC(C)[C@H](N)C(=O)O[C@@H]1[C@@H](CO)O[C@@H](n2ccc(N)nc2=O)[C@]1(C)O [NM283, valopicitabine]",EC50,[1],1.16 ± 0.2 µM
"CC(C)(C)NC(=O)N[C@H](C(=O)N1C[C@H]2[C@@H]([C@H]1C(=O)NC(CC1CCC1)C(=O)C(N)=O)C2(C)C)C(C)(C)C (stereo partly shown) [SCH503034, boceprevir]",EC50,[4],~0.21 µM
same,CC50 at 72 h,"[5]; Huh7.5 cells, genotype 2a experiments, Alamar Blue-based and CellTiter-Blue assay",> 100 µM
same,CC50,Huh7.5 cells; [11],> 100 µM
same,EC50,[1],0.8 µM
same,decrease of viral replication,[1]; SCH503034 alone at 2.5 μM,~1 log
same,"viral replication relative to 1, untreated",[1]; SCH503034 alone at 2.5 μM,0.08
same,sensitivity of Huh7.5 cells transfected with whole cell RNA from W55R clone,[6],remained sensitive
same,sensitivity of Huh7.5 cells transfected with whole cell RNA from A156T clone,[7],decreased sensitivity
"CCC[C@H](NC(=O)[C@@H]1[C@H]2CCC[C@H]2CN1C(=O)[C@@H](NC(=O)[C@@H](NC(=O)c1cnccn1)C1CCCCC1)C(C)(C)C)C(=O)C(=O)NC1CC1 [VX-950, telaprevir]",EC50,[1],~0.3 µM
same,EC50,"HCV; different assay and 1b genotype, read-out: EC50 reported by others",0.354 to 0.56 µM
Clc1ccc(Cn2c(CN3CCCC3)nc3ccccc32)cc1 [clemizole],EC50,[4],23 ± 7 µM
same,CC50 at 72 h,[5]; [11],40 ± 5 µM
same,CC50 at 72 h,"[5]; genotype 2a experiments, Alamar Blue-based and CellTiter-Blue assay",35 ± 0.5 µM
same,cellular toxicity,"Huh7.5 cells; at antiviral concentrations, Alamar Blue, 72 hr",no measurable toxicity
same,HCV replication levels,[8],inhibits HCV replication
same,sensitivity of Huh7.5 cells transfected with whole cell RNA from W55R clone,[6],unaffected
same,HCV viral loads in serum,HCV (genotype 4),decreased significantly
same,effect on replication of W55R mutant,W55R mutant J6/JFH RNA; 10 μM clemizole,unaffected
same,EC50 relative to the EC50 on the wild type RNA,W55R mutant J6/JFH RNA; W55R mutant,2.25 times
same,reduction of RNA binding,W55R NS4B mutant,~2 fold
same,decrease of the frequency of resistant colonies selected with 1 μM of SCH503034,[9]; 4 μM clemizole added,6 folds
same,decrease of the frequency of resistant colonies selected with 1 μM of SCH503034,[9]; 8 μM clemizole added,18 folds
same,EC50 relative to the EC50 on the wild type RNA,R214Q NS4B mutant HCV,~5 times
same,effect on binding of HuR to 4A RNA sequence,HuR,No inhibitory effect
same,sensitivity of Huh7.5 cells transfected with whole cell RNA from A156T clone,[7],but not to clemizole
same,reduction of RNA binding,[10],~2 fold
